Assay [1] concerns KIT. The experiment in a line: KIT enzymatic assay. The class given is biochemical. As for the experimental part: (§1) Example D. KIT Enzymatic Assay
(§2) The kinase assays were carried out at room temperature in assay buffer (HEPES 50 mM, pH 7.0, NaN3 0.02%, BSA 0.01%, Orthovanadate 0.1 mM, DTT 1 mM, MgCl2 10 mM) in a final volume of 10 μL. Testing compounds were prepared by serial dilution in DMSO and transferred to the plate wells by ECHO liquid handler (Labcyte) with 0.5% DMSO in the final assay. […]. Reactions were initiated by the addition of 5 μL ATP in assay buffer. The final 10 μL kinase reaction consists of 0.12 nM KIT, 1 mM ATP, 500 nM TK Substrate-biotin and SEB reagent 62.5 nM in assay buffer. […] The plates were then sealed and centrifuged at 1800 rpm for 2 minutes. After 60 minutes incubation at room temperature, the product activity was determined by measuring the fluorescence at 620 nm and 665 nm on Pherastar microplate reader (BMG Labtech). A ratio is calculated (665/620 nm) for each well. Wells with DMSO only were served as the positive controls and wells containing no ATP were used as negative controls. IC50 determination was performed by fitting the curve of percent control activity versus the log of the compound concentration using the GraphPad Prism 7.0 software.

Assay [2] has as its target KIT (Homo sapiens, UniProt P10721). The experiment in a line: KIT enzymatic assay. Format: biochemical. The conditions noted are these: 1 mM ATP. As to the method:
as §1, §2

In assay [3] the test system is TRKA. The experiment in a line: TRKA enzymatic assay. Format: biochemical. As to the method:
(§3) Example I. TRKA Enzymatic Assay
(§4) The kinase assays were carried out at 24° C. temperature in assay buffer (HEPES 50 mM, pH 7.0, NaN3 0.02%, BSA 0.01%, Orthovanadate 0.1 mM, DTT 1 mM, MgCl2 10 mM) in a final volume of 10 μL. Testing compounds were prepared by serial dilution in DMSO and transferred to the plate wells by ECHO liquid handler (Labcyte) with 0.5% DMSO in the final assay. […]. Reactions were initiated by the addition of 5 μL ATP in assay buffer. The final 10 μL kinase reaction consists of 0.58 nM TRKA, 1 mM ATP, 500 nM TK Substrate-biotin and SEB reagent 62.5 nM in assay buffer. […] After 60 minutes incubation at room temperature, the product activity was determined by measuring the fluorescence at 620 nm and 665 nm on Pherastar microplate reader (BMG Labtech). A ratio is calculated (665/620 nm) for each well. Wells with DMSO only were served as the positive controls and wells containing no ATP were used as negative controls. IC50 determination was performed by fitting the curve of percent control activity versus the log of the compound concentration using the Gene data.

The target in assay [4] is TRKA (Homo sapiens, UniProt P04629). The experiment in a line: TRKA enzymatic assay. The class given is biochemical. The conditions noted are these: 1 mM ATP. As to the method:
as §3, §4

The test system of another assay is FLT3. The experiment in a line: FLT3 enzymatic assay. The class given is biochemical. As to the method:
Example C. FLT3 Enzymatic Assay
as §2, with “0.011” for “0.12”, “FLT3,” for “KIT,”

Assay [5] deals with T1, pseudo-kinase domain (JH2) of human V617F mutant JAK2 (Homo sapiens, UniProt O60674, F794H/V617F/W659A/W777A).
T1 construct: pseudo-kinase domain (JH2, amino-acids 536-812 with 3 surface mutations W659A, W777A, F794H); His (C); purchased BPS Bioscience 79498; host or cells: baculovirus expression system
T1 sequence (O60674 536-812 V617F/W659A/W777A/F794H): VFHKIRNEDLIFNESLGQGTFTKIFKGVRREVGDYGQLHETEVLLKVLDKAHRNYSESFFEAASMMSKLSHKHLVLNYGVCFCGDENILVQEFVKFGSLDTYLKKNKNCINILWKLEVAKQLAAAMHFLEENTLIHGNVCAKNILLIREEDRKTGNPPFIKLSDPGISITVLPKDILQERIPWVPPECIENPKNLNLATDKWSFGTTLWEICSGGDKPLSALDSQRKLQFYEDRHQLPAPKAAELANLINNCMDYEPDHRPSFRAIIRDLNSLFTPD
The experiment in a line: JAK2 LanthaScreen JH2-V617F binding assay. The conditions noted are these: read-out: JH2 V617F Bind IC50. As to the method:
Example B. JAK2 LanthaScreen JH2-V617F Binding Assay
JAK2 JH2-V617F binding assay utilizes pseudo-kinase domain (JH2, amino-acids 536-812 with 3 surface mutations W659A, W777A, F794H) of human V617F mutant JAK2 expressed as C-terminal His-Avi-tagged, biotinylated protein in a baculovirus expression system (BPS Bioscience, Catalog #79498). The assay was conducted in black 384-well polystyrene plates in a final reaction volume of 20 μL. JAK2 JH2-V617F (0.26 nM) was incubated with compounds (100 nL serially diluted in DMSO) in the presence of 50 nM Fluorescent JAK2-JH2 Tracer (MedChem Express Catalog #HY-102055) and 0.25 nM Streptavidin-Tb cryptate (Cisbio Part #610SATLB) in assay buffer (50 mM Tris, pH=7.5, 10 mM MgCl2, 0.01% Brij-35, 0.1% BSA, 1 mM EGTA, 5% Glycerol and 5 mM DTT). Non-specific binding was accessed in the presence of 2 mM ATP. After incubation for 1 hour at 25° C., LanthaScreen signals were read on a PHERAstar FS plate reader (BMG LABTECH). Data was analyzed with IDBS XLfit and GraphPad Prism 5.0 software using a four parameter dose response curve to determine IC50 for each compound.

In general, pIC50 refers to −log10 of the IC50, conventionally taken in molar units.

Molecules are shown by their SMILES. pIC50: −log10 of the molar value. Where two headings read alike, the source gives them in different places.

Chain of KIT (Homo sapiens, UniProt P10721) (P10721 26-976, species assumed): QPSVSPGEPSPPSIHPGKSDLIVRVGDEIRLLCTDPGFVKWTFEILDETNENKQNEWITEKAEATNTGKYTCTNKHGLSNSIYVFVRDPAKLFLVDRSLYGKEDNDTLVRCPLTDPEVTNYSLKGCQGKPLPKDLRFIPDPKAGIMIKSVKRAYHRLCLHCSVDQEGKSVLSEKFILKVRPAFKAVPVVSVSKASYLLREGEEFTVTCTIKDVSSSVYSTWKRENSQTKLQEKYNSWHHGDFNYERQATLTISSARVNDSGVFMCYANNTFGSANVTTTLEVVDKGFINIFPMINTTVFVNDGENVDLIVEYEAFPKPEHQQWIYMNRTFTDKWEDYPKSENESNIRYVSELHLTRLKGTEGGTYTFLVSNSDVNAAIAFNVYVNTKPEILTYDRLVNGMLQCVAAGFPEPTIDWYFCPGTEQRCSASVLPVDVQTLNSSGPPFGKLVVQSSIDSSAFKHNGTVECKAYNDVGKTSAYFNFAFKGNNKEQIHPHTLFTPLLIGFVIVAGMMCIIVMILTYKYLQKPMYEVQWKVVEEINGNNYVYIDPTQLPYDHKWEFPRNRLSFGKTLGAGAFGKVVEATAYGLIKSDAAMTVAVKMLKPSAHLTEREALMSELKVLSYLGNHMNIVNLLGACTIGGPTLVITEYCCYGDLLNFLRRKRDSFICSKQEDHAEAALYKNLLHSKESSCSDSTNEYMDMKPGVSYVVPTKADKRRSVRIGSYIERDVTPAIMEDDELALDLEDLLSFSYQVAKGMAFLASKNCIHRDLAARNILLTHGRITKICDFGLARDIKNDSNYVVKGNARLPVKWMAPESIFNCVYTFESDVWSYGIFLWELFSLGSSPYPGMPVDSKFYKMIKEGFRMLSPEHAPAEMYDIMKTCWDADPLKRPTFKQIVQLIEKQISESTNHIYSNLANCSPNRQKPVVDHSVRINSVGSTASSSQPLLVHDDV
Chain of TRKA (Homo sapiens, UniProt P04629) (P04629 33-796, species assumed): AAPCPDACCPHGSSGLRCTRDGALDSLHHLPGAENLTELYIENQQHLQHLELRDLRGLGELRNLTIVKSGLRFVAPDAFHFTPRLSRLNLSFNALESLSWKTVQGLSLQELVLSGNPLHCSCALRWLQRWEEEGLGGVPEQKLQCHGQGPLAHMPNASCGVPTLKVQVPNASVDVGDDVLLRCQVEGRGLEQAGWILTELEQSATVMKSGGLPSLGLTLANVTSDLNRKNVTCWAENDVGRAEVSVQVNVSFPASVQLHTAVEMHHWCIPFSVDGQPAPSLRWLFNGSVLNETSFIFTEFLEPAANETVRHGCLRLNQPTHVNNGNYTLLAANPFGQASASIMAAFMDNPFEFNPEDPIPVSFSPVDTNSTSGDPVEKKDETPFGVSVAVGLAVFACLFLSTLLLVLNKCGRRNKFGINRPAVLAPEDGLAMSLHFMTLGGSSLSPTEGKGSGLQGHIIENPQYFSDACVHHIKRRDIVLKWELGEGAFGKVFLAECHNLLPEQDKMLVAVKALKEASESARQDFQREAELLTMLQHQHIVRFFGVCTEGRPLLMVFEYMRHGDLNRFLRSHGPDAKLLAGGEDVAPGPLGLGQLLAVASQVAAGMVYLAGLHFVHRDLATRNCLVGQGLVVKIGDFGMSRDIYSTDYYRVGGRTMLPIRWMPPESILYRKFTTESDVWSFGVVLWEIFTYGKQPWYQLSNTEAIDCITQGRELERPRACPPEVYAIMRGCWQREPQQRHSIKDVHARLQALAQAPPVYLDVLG

As to `COc1nn(C)cc1-c1[nH]c2ncc3c(c2c1-c1ccc2c(cnn2C)c1)n(C1CCOCC1)c(=O)n3C` [A, reference compound], the “Selectivity KIT/JH2 V617F” value in the assay with KIT [1] is listed as “* (selectivity of ≤500-fold)”. The pIC50 against KIT [2] is 5.90 to 6.60; against TRKA [4] it was 5.60 to 5.90. Besides, the “Selectivity TRKA/JH2 V617F” value in the assay with TRKA [3] is “** (selectivity of >500-fold to ≤1500-fold)”. The “Selectivity FLT3/JH2 V617F” value in the assay with FLT3 is reported as “* (selectivity of ≤500-fold)”.

For `[2H]C([2H])([2H])n1ncc2cc(-c3c(-c4cn(C)nc4OC)[nH]c4ncc5c(c34)n(C3CCOCC3)c(=O)n5C)ccc21` [B, reference compound], the “Selectivity KIT/JH2 V617F” value with KIT [1] is “** (selectivity of >500-fold to ≤1500-fold)”. Moreover, the “Selectivity TRKA/JH2 V617F” value in the assay with TRKA [3] was “** (selectivity of >500-fold to ≤1500-fold)”. Further, the pIC50 against TRKA [4] is < 5.60. Further, the “Selectivity FLT3/JH2 V617F” value with FLT3 is listed as “* (selectivity of ≤500-fold)”.

With `COc1nn(C)cc1-c1[nH]c2ncc3c(c2c1-c1ccc2c(cnn2C)c1)n([C@H]1CC[C@@H](CC#N)CC1)c(=O)n3C` [E, reference compound], the “Selectivity KIT/JH2 V617F” value in the assay on KIT [1] is on record as “*** (selectivity of >1500-fold to ≤1750-fold)”. The pIC50 at KIT [2] was 5.60 to 5.90; against TRKA [4], 5.90 to 6.60. Besides, the “Selectivity TRKA/JH2 V617F” value in the assay on TRKA [3] is reported as “** (selectivity of >500-fold to ≤1500-fold)”. Also, the “Selectivity FLT3/JH2 V617F” value in the assay on FLT3 is on record as “* (selectivity of ≤500-fold)”.

For `COC(=O)N[C@@H]1CC[C@@H](n2c(=O)n(C)c3cnc4[nH]c(-c5cn(C)nc5OC)c(-c5ccc(F)cc5)c4c32)C1` [Example 1, Methyl ((1R,3R)-3-(8-(4-fluorophenyl)-7-(3-methoxy-1-methyl-1H-pyrazol-4-yl)-3-methyl-2-oxo-3,6-dihydroimidazo[4,5-d]pyrrolo[2,3-b]pyridin-1(2H)-yl)cyclopentyl)carbamate], the “Selectivity KIT/JH2 V617F” value with KIT [1] is “***** (selectivity of >5000-fold to ≤12500-fold)”. The pIC50 on KIT [2] is < 5.60; at TRKA [4] it was 5.60 to 5.90; in assay [5] (Table A) it was ≥ 8.00; in assay [5] (Table C) it was ≥ 8.00. Also, the “Selectivity TRKA/JH2 V617F” value in the assay with TRKA [3] is “** (selectivity of >500-fold to ≤1500-fold)”. Also, the “Selectivity FLT3/JH2 V617F” value in the assay on FLT3 is given as “**** (selectivity of >1750-fold to ≤5000-fold)”.

Regarding `COC(=O)N[C@@H]1CC[C@@H](n2c(=O)n(C)c3cnc4[nH]c(-c5cn(C)nc5OC)c(-c5ccccc5)c4c32)C1` [Example 2, Methyl ((1R,3R)-3-(7-(3-methoxy-1-methyl-1H-pyrazol-4-yl)-3-methyl-2-oxo-8-phenyl-3,6-dihydroimidazo[4,5-d]pyrrolo[2,3-b]pyridin-1(2H)-yl)cyclopentyl)carbamate], the “Selectivity KIT/JH2 V617F” value in the assay with KIT [1] was “**** (selectivity of >1750-fold to ≤5000-fold)”. Besides, the negative logarithm of the IC50 (pIC50) on KIT [2] was < 5.60; against TRKA [4], < 5.60; in assay [5] (Table A), ≥ 8.00; in assay [5] (Table C) it was ≥ 8.00. The “Selectivity TRKA/JH2 V617F” value with TRKA [3] is given as “**** (selectivity of >1750-fold to ≤5000-fold)”. Also, the “Selectivity FLT3/JH2 V617F” value with FLT3 is reported as “**** (selectivity of >1750-fold to ≤5000-fold)”.

Turning to `COC(=O)N[C@@H]1CC[C@@H](n2c(=O)n(C)c3cnc4[nH]c(-c5cn(C)nc5OC)c(-c5cccc(F)c5)c4c32)C1` [Example 3, Methyl ((1R,3R)-3-(8-(3-fluorophenyl)-7-(3-methoxy-1-methyl-1H-pyrazol-4-yl)-3-methyl-2-oxo-3,6-dihydroimidazo[4,5-d]pyrrolo[2,3-b]pyridin-1(2H)-yl)cyclopentyl)carbamate], in the assay on KIT [1], the “Selectivity KIT/JH2 V617F” value is given as “**** (selectivity of >1750-fold to ≤5000-fold)”. The pIC50 on KIT [2] is 5.60 to 5.90; against TRKA [4], 5.60 to 5.90; in assay [5] (Table A), ≥ 8.00; in assay [5] (Table C) it was ≥ 8.00. In addition, the “Selectivity TRKA/JH2 V617F” value in the assay on TRKA [3] was “**** (selectivity of >1750-fold to ≤5000-fold)”. The “Selectivity FLT3/JH2 V617F” value in the assay with FLT3 is “**** (selectivity of >1750-fold to ≤5000-fold)”.

Turning to `COC(=O)N[C@@H]1CC[C@@H](n2c(=O)n(C)c3cnc4[nH]c(-c5cn(C)nc5OC)c(-c5ccc(OC)c(F)c5)c4c32)C1` [Example 4, Methyl ((1R,3R)-3-(8-(3-fluoro-4-methoxyphenyl)-7-(3-methoxy-1-methyl-1H-pyrazol-4-yl)-3-methyl-2-oxo-3,6-dihydroimidazo[4,5-d]pyrrolo[2,3-b]pyridin-1(2H)-yl)cyclopentyl)carbamate], the “Selectivity KIT/JH2 V617F” value in the assay with KIT [1] was “****** (selectivity of >12500-fold)”. For the same molecule, the pIC50 against KIT [2] is < 5.60; on TRKA [4], < 5.60; in assay [5] (Table A) it was ≥ 8.00; in assay [5] (Table C), ≥ 8.00. Moreover, in the assay on TRKA [3], the “Selectivity TRKA/JH2 V617F” value is on record as “***** (selectivity of >5000-fold to ≤12500-fold)”. In addition, in the assay on FLT3, the “Selectivity FLT3/JH2 V617F” value is listed as “***** (selectivity of >5000-fold to ≤12500-fold)”.

In the case of `[2H]C([2H])([2H])n1ncc2cc(-c3c(-c4cn(C)nc4OC)[nH]c4ncc5c(c34)n([C@@H]3CC[C@@H](NC(=O)OC)C3)c(=O)n5C)ccc21` [Example 5, Methyl ((1R,3R)-3-(7-(3-methoxy-1-methyl-1H-pyrazol-4-yl)-3-methyl-8-(1-(methyl-d3)-1H-indazol-5-yl)-2-oxo-3,6-dihydroimidazo[4,5-d]pyrrolo[2,3-b]pyridin-1(2H)-yl)cyclopentyl)carbamate], in the assay on KIT [1], the “Selectivity KIT/JH2 V617F” value was “****** (selectivity of >12500-fold)”. The pIC50 was < 5.60 on KIT [2], < 5.60 on TRKA [4], ≥ 8.00 in assay [5] (Table A) and ≥ 8.00 in assay [5] (Table C). The “Selectivity TRKA/JH2 V617F” value in the assay on TRKA [3] is listed as “****** (selectivity of >12500-fold)”. In addition, in the assay on FLT3, the “Selectivity FLT3/JH2 V617F” value is given as “***** (selectivity of >5000-fold to ≤12500-fold)”.

Values taken from patent publication US12084430B2, “Tricyclic urea compounds as JAK2 V617F inhibitors” (Incyte Corporation, priority 2022, dated 2024).
